Test results: US20140155376A1, “PYRROLOPYRAZINE KINASE INHIBITORS” (Hoffmann-La Roche Inc., priority 2010, published 2014)

Target: T1, JAK3 (recombinant human kinase domain; h-jak3(810-1124)) (Homo sapiens, UniProt P52333)
T1 construct: h-jak3(810- 1124)-sf9-c; made in house; host or cells: Sf9 insect cells
Experiment: Determination of IC50 of Janus Kinase (JAK) inhibition: JAK3, radioactive end-point assay with 33P-ATP
Format: biochemical
Details: JAK3 kinase domain; ATP 1.5 uM, peptide 50 uM, 20 minutes, room temperature, 10% DMSO; read-out: Ic50 h-jak3(810-1124)-sf9-c:no additive

T1 sequence (P52333 810-1124): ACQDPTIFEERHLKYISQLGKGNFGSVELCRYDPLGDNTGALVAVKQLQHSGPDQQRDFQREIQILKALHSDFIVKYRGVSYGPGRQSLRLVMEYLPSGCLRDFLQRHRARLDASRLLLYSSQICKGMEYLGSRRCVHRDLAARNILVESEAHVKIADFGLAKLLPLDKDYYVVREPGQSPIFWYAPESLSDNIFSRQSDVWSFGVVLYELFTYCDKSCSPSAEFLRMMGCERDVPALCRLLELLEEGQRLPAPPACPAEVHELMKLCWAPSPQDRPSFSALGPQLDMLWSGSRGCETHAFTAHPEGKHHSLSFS

IC50 [nM] | SMILES
0.22 | CC(Cn1ccnc1)NC(=O)c1ccc(-c2cnc3[nH]cc(C(=O)N[C@@H](C)C(C)(C)C)c3n2)s1 (stereo partly drawn) [Example I-174, 2-[5-(2-Imidazol-1-yl-1-methyl-ethylcarbamoyl)-thiophen-2-yl]-5H-pyrrolo[2,3-b]pyrazine-7-carboxylic acid ((S)-1,2,2-trimethyl-propyl)-amide]
24.4 | C[C@H](NC(=O)c1c[nH]c2ncc(Oc3ccccc3)nc12)C(C)(C)C [Example I-120, 2-Phenoxy-5H-pyrrolo[2,3-b]pyrazine-7-carboxylic acid ((S)-1,2,2-trimethyl-propyl)-amide]
7.25 | C[C@@H](NC(=O)c1c[nH]c2ncc(-c3cccs3)nc12)C(C)(C)O [Example I-103, 2-Thiophen-2-yl-5H-pyrrolo[2,3-b]pyrazine-7-carboxylic acid ((R)-2-hydroxy-1,2-dimethyl-propyl)-amide]
0.57 | C[C@H](NC(=O)c1c[nH]c2ncc(-c3ccc(C(=O)Nc4ccccc4)s3)nc12)C(C)(C)C [Example I-201, 2-(5-Phenylcarbamoyl-thiophen-2-yl)-5H-pyrrolo[2,3-b]pyrazine-7-carboxylic acid ((S)-1,2,2-trimethyl-propyl)-amide]
0.55 | C[C@H](NC(=O)c1c[nH]c2ncc(-c3cnn(C)c3)nc12)C(C)(C)C#N [Example I-139, 2-(1-Methyl-1H-pyrazol-4-yl)-5H-pyrrolo[2,3-b]pyrazine-7-carboxylic acid ((S)-2-cyano-1,2,2-trimethyl-ethyl)-amide]
45 | Cc1ccc(-c2cnc3[nH]cc(C(=O)N[C@@H](C)C(C)(C)O)c3n2)cn1 [Example I-21, 2-(6-Methyl-pyridin-3-yl)-5H-pyrrolo[2,3-b]pyrazine-7-carboxylic acid ((S)-2-hydroxy-1,2-dimethyl-propyl)-amide]
0.73 | C[C@H](NC(=O)c1c[nH]c2ncc(-c3ccc(C(=O)Nc4ccc5c(c4)CCCC5)s3)nc12)C(C)(C)C [Example I-200, 2-[5-(5,6,7,8-Tetrahydro-naphthalen-2-ylcarbamoyl)-thiophen-2-yl]-5H-pyrrolo[2,3-b]pyrazine-7-carboxylic acid ((S)-1,2,2-trimethyl-propyl)-amide]
0.11 | Cc1cc(-c2cnc3[nH]cc(C(=O)N[C@@H](C)C(C)(C)C)c3n2)sc1C(=O)N1CC(CO)(CO)C1 [Example I-222, 2-[5-(3,3-Bis-hydroxymethyl-azetidine-1-carbonyl)-4-methyl-thiophen-2-yl]-5H-pyrrolo[2,3-b]pyrazine-7-carboxylic acid ((S)-1,2,2-trimethyl-propyl)-amide]
0.69 | CC1CCCCC1NC(=O)c1ccc(-c2cnc3[nH]cc(C(=O)N[C@@H](C)C(C)(C)C)c3n2)s1 (stereo partly drawn) [Example I-190, 2-[5-(2-Methyl-cyclohexyl-carbamoyl)-thiophen-2-yl]-5H-pyrrolo[2,3-b]pyrazine-7-carboxylic acid ((S)-1,2,2-trimethyl-propyl)-amide]
0.65 | C[C@H](Cc1cnc[nH]1)NC(=O)c1ccc(-c2cnc3[nH]cc(C(=O)N[C@@H](C)C(C)(C)C)c3n2)s1 [Example I-199, 2-{5-[(R)-2-(3H-Imidazol-4-yl)-1-methyl-ethylcarbamoyl]-thiophen-2-yl}-5H-pyrrolo[2,3-b]pyrazine-7-carboxylic acid ((S)-1,2,2-trimethyl-propyl)-amide]
0.29 | C[C@H](CO)NC(=O)c1ccc(-c2cnc3[nH]cc(C(=O)N[C@@H](C)C(C)(C)C)c3n2)s1 [Example I-169, 2-[5-((R)-2-Hydroxy-1-methyl-ethylcarbamoyl)-thiophen-2-yl]-5H-pyrrolo[2,3-b]pyrazine-7-carboxylic acid ((S)-1,2,2-trimethyl-propyl)-amide]
0.11 | C[C@H](NC(=O)c1c[nH]c2ncc(-c3ccc(C(=O)N4CC5(COC5)C4)s3)nc12)C(C)(C)C [Example I-217, 2-[5-(2-Oxa-6-aza-spiro[3.3]heptane-6-carbonyl)-thiophen-2-yl]-5H-pyrrolo[2,3-b]pyrazine-7-carboxylic acid ((S)-1,2,2-trimethyl-propyl)-amide]
1.34 | C[C@H](NC(=O)c1c[nH]c2ncc(-c3ccc(C(=O)NC45CC6CC(CC(C6)C4)C5)s3)nc12)C(C)(C)C [Example I-194, 2-[5-(Adamantan-1-ylcarbamoyl)-thiophen-2-yl]-5H-pyrrolo[2,3-b]pyrazine-7-carboxylic acid ((S)-1,2,2-trimethyl-propyl)-amide]
0.22 | C[C@H](NC(=O)c1c[nH]c2ncc(-c3ccc(C(=O)NCC4CCCC4)s3)nc12)C(C)(C)C [Example I-168, 2-[5-(Cyclo-pentylmethyl-carbamoyl)-thiophen-2-yl]-5H-pyrrolo[2,3-b]pyrazine-7-carboxylic acid ((S)-1,2,2-trimethyl-propyl)-amide]
343 | CC(C)(C)[C@@H](CO)NC(=O)c1c[nH]c2ncc(C3CC3)nc12 [Example I-47, 2-Cyclopropyl-5H-pyrrolo[2,3-b]pyrazine-7-carboxylic acid ((S)-1-hydroxymethyl-2,2-dimethyl-propyl)-amide]

More lines, now with the values behind:

SMILES | IC50 [nM]
CCNC(=O)c1c[nH]c2ncc(Oc3cccc(OC(F)(F)F)c3)nc12 [Example I-246, 2-(3-Trifluoromethoxy-phenoxy)-5H-pyrrolo[2,3-b]pyrazine-7-carboxylic acid ethylamide] | 3460
CC(NC(=O)c1c[nH]c2ncc(C3CC3)nc12)c1ccccn1 (centres unmarked) [Example I-70, 2-Cyclopropyl-5H-pyrrolo[2,3-b]pyrazine-7-carboxylic acid (1-pyridin-2-yl-ethyl)-amide] | 87
CC(C)(O)[C@H](NC(=O)c1c[nH]c2ncc(C3CC3)nc12)C1CC1 [Example I-74, 2-Cyclopropyl-5H-pyrrolo[2,3-b]pyrazine-7-carboxylic acid ((R)-1-cyclopropyl-2-hydroxy-2-methyl-propyl)-amide] | 27.1
CC(=O)NC1Cc2ccc(Oc3cnc4[nH]cc(C(=O)NC(C)C)c4n3)cc2C1 (centres unmarked) [Example I-300, 2-(2-Acetylamino-indan-5-yloxy)-5H-pyrrolo[2,3-b]pyrazine-7-carboxylic acid isopropylamide] | 199
CCNC(=O)c1c[nH]c2ncc(Oc3ccc(C#N)cc3)nc12 [Example I-267, 2-(4-Cyano-phenoxy)-5H-pyrrolo[2,3-b]pyrazine-7-carboxylic acid ethylamide] | 2360
CC(C)NC(=O)c1c[nH]c2ncc(Oc3cccc(C(F)(F)F)c3)nc12 [Example I-235, 2-(3-Trifluoromethyl-phenoxy)-5H-pyrrolo[2,3-b]pyrazine-7-carboxylic acid isopropylamide] | 784
CC(C)NC(=O)c1c[nH]c2ncc(Oc3ccc4c(c3)CCCC4)nc12 [Example I-240, 2-(5,6,7,8-Tetrahydro-naphthalen-2-yloxy)-5H-pyrrolo[2,3-b]pyrazine-7-carboxylic acid isopropylamide] | 315
CC(C)NC(=O)c1c[nH]c2ncc(Oc3ccc4ccn(C)c4c3)nc12 [Example I-276, 2-(1-Methyl-1H-indol-6-yloxy)-5H-pyrrolo[2,3-b]pyrazine-7-carboxylic acid isopropylamide] | 574
CC(C)NC(=O)c1c[nH]c2ncc(Oc3ccc4c(c3)[C@H](O)CC4)nc12 [Example I-303, 2-((R)-3-Hydroxy-indan-5-yloxy)-5H-pyrrolo[2,3-b]pyrazine-7-carboxylic acid isopropylamide] | 140
CC[C@H](C)NC(=O)c1c[nH]c2ncc(Oc3ccccc3)nc12 [Example I-121, 2-Phenoxy-5H-pyrrolo[2,3-b]pyrazine-7-carboxylic acid ((S)-sec-butyl)-amide] | 59.5
O=C(NC(C1CC1)C1CC1)c1c[nH]c2ncc(C3CC3)nc12 [Example I-80, 2-Cyclopropyl-5H-pyrrolo[2,3-b]pyrazine-7-carboxylic acid dicyclopropyl-methyl-amide] | 3.9
C[C@@H](NC(=O)c1c[nH]c2ncc(C#N)nc12)C(C)(C)O [Example I-115, 2-Cyano-5H-pyrrolo[2,3-b]pyrazine-7-carboxylic acid ((R)-2-hydroxy-1,2-dimethyl-propyl)-amide] | 3300
CCNC(=O)c1c[nH]c2ncc(Oc3cccc(C(C)(C)C)c3)nc12 [Example I-247, 2-(3-tert-Butyl-phenoxy)-5H-pyrrolo[2,3-b]pyrazine-7-carboxylic acid ethylamide] | 6460
CC(C)(CO)NC(=O)c1c[nH]c2ncc(C3CC3)nc12 [Example I-45, 2-Cyclopropyl-5H-pyrrolo[2,3-b]pyrazine-7-carboxylic acid (2-hydroxy-1,1-dimethyl-ethyl)-amide] | 208
N#CC(NC(=O)c1c[nH]c2ncc(C3CC3)nc12)C1CC1 (centres unmarked) [Example I-90, 2-Cyclopropyl-5H-pyrrolo[2,3-b]pyrazine-7-carboxylic acid (cyano-cyclopropyl-methyl)-amide] | 14.5
CC(C)NC(=O)c1c[nH]c2ncc(Oc3ccc4ccccc4c3)nc12 [Example I-242, 2-(Naphthalen-2-yloxy)-5H-pyrrolo[2,3-b]pyrazine-7-carboxylic acid isopropylamide] | 1180
C[C@H](NC(=O)c1c[nH]c2ncc(Oc3ccccc3)nc12)C1CCCCC1 [Example I-123, 2-Phenoxy-5H-pyrrolo[2,3-b]pyrazine-7-carboxylic acid ((S)-1-cyclohexyl-ethyl)-amide] | 1330
CC(=O)N1CCCC(CNC(=O)c2c[nH]c3ncc(C4CC4)nc23)C1 (centres unmarked) [Example I-136, 2-Cyclopropyl-5H-pyrrolo[2,3-b]pyrazine-7-carboxylic acid (1-acetyl-piperidin-3-ylmethyl)-amide] | 283
CCn1cc(-c2cnc3[nH]cc(C(=O)N[C@@H](C)C4(O)CCCC4)c3n2)cn1 [Example I-138, 2-(1-Ethyl-1H-pyrazol-4-yl)-5H-pyrrolo[2,3-b]pyrazine-7-carboxylic acid [(S)-1-(1-hydroxy-cyclopentyl)-ethyl]-amide] | 5.01
CCC(CC)NC(=O)c1c[nH]c2ncc(C3CC3)nc12 [Example I-26, 2-Cyclopropyl-5H-pyrrolo[2,3-b]pyrazine-7-carboxylic acid (1-ethyl-propyl)-amide] | 4.08
